Patent US20220117929A1, “METHOD FOR PREVENTING OR TREATING HIGH-GRADE SEROUS CARCINOMA” (Buddhist Tzu Chi Medical Foundation, priority 2020, published 2022)
≈ marks a conversion by molar mass, not a printed value. Where two headings read alike, the source gives them in different places.

Columns and labels:
ALDH^+ kuramochi cells [1] = assay: Western blot of cleaved caspases in cultured cells; assay type: cell-based, human; details: BP 100 μg/ml or 200 μg/ml, 48 hours
Text: Accordingly, the effect of BP on the apoptotic signaling pathway was further investigated by quantifying the amount of activated caspase proteins by western blot analysis. […] The cell lysates were loaded onto a gradient 5-20% sodium dodecyl sulfate-polyacrylamide gradient gel. After electrophoretic separation, the proteins were transferred to a polyvinylidene difluoride membrane (Bio-Rad). The membrane was blocked at room temperature in a solution of 3% non-fat dry milk in PBS and 0.1% Tween-20 and then rinsed in PBS/0.1% Tween-20. Blots were incubated with diluted solutions of polyclonal anti-caspase 3 and 8, or anti-cleaved caspase 3, 7, 8, or 9 antibodies (1:200, St. John's Lab, London, UK) and treated with 1:5000 diluted anti-rabbit immunoglobulin G horseradish peroxidase (HRP) for staining (Amersham GE, Taipei, Taiwan). Beta-actin and tubulin proteins (Santa Cruz Biotechnology, Santa Cruz, Calif., USA) were used as internal controls. HRP signals were detected using an electrochemiluminescence kit (Promega, Fitchburg, Wis., USA).

[2] = tested on: ALDH^+ kuramochi xenograft; assay: Western blot of caspases in xenograft tumors; assay type: in vivo, mice; details: xenograft treated with BP vs control without BP
Procedure: Accordingly, the effect of BP on the apoptotic signaling pathway was further investigated by quantifying the amount of activated caspase proteins by western blot analysis. Specifically, ALDH^+ kuramochi cells were treated with BP (at 100 μg/ml for 48 hours) and lysed. The cell lysates were loaded onto a gradient 5-20% sodium dodecyl sulfate-polyacrylamide gradient gel. After electrophoretic separation, the proteins were transferred to a polyvinylidene difluoride membrane (Bio-Rad). The membrane was blocked at room temperature in a solution of 3% non-fat dry milk in PBS and 0.1% Tween-20 and then rinsed in PBS/0.1% Tween-20. Blots were incubated with diluted solutions of polyclonal anti-caspase 3 and 8, or anti-cleaved caspase 3, 7, 8, or 9 antibodies (1:200, St. John's Lab, London, UK) and treated with 1:5000 diluted anti-rabbit immunoglobulin G horseradish peroxidase (HRP) for staining (Amersham GE, Taipei, Taiwan). Beta-actin and tubulin proteins (Santa Cruz Biotechnology, Santa Cruz, Calif., USA) were used as internal controls. HRP signals were detected using an electrochemiluminescence kit (Promega, Fitchburg, Wis., USA).
(§1) With BP treatment (200 mg/kg), the tumor volumes were smaller than those of control mice treated with the vehicle starting from day 11 to day 26 (p<0.001), as shown in FIG. 7A. […] TUNEL assay was also carried out to evaluate cell viability in the xenograft tumors, using the reagents and procedures as described above but with tumor tissue fixed in formalin and embedded in paraffin and sectioned with a 3 m of thickness. Also, protein levels of cleaved caspase 3, caspase 9, and caspase 7 were examined using western blots as described above to examine apoptotic pathway activation in xenograft tumors.

ALDH^+ kuramochi cells [3] = assay: Matrigel-coated Boyden chamber invasion assay; assay type: cell-based, human; details: 24 hours, vs untreated cells
Procedure: For assessment of cell invasion, the invasion assays were carried out in Matrigel-coated Boyden chambers (filter pore size, 8 μM) in 24-well plates (BD). In the top wells, culture medium without serum was seeded with 5×10^4 cells. The bottom wells were added with medium containing 10% FBS and BP (0, 100, or 200 μg/ml). Treatments were added to both upper and lower chambers as indicated. After 24 hours, the free cells were removed gently with a cotton swab. The invading cells were fixed with 4% formaldehyde and Giemsa stained. The slides were air-dried and photographed, and the cells were counted.

ordinary kuramochi cells = assay: XTT cell viability assay, ordinary kuramochi cells; assay type: cell-based; details: Homo sapiens
Procedure: Kuramochi cells is a high-grade serous ovarian carcinoma (HGSOC) cell line purchased from Japan Cell Bank. Gene expressions of this cell line was previously confirmed to be mimicking HGSOC (Domcke, S.; Sinha, R.; Levine, D. A.; Sander, C.; Schultz, N. Nat. Commun. 2013, 4, 2126). The cell line was maintained in Dulbecco's Modified Eagle Medium (DMEM; Sigma, St. Louis, Mo., USA) supplemented with 10% fetal bovine serum (FBS), 0.1% non-essential amino acids (NEAA), 2 mM L-glutamine, and 1% penicillin-streptomycin. The cells were incubated at 37° C. with 5% CO2.
(§2) The half-maximal inhibitory concentration (IC50) of BP is determined in ALDH^+ and ordinary kuramochi cells. IC50 is determined by assessing the cell viability under different concentration of BP. For example, cell viability was determined by XTT assay (Biological Industries Ltd., Kibbutz Beit Haemek, Israel) following the instruction provided by the manufacturer. […] After 2-5 h of incubation at 37° C., plates were analyzed by spectrophotometry to determine the optical density of the solutions at a wavelength of 450 nm (reference wavelength, 650 nm) to determine viable cell number. […] The equation is expressed as follows: Y=d+(a−d)/(1+(X/c)^B), where Y is the response, and X is the concentration. […]

ALDH^+ kuramochi cells [4] = assay: Boyden chamber (transwell) cell migration assay; assay type: cell-based, human; details: 48 hours, vs untreated cells
Procedure: For assessment of cell migration, kuramochi cells (5×10^4 cells) were seeded into the top well of a Boyden chamber (24-well transwell) with a pore size of 8 m (Costar, Corning Inc., Corning, N.Y., USA). The cells were allowed to migrate toward the lower well filled with the same culture medium with BP at a concentration of 100 or 200 μg/ml or without BP treatment. After 48 hours of migration, crystal violet (Sigma) was used to stain the migrated cells. The stained cells were counted using a bright-field microscope. Each experiment was repeated three times.

[5] = tested on: ALDH^+ kuramochi xenograft; assay: TUNEL assay of xenograft tumor tissue; assay type: in vivo, mice; details: BP 200 mg/kg, p<0.001
Procedure: (§3) The level of apoptosis was compared between ALDH^+ kuramochi cells with and without BP treatment using the terminal deoxynucleotidyl transferase dUTP nick end labeling (TUNEL) assay. TUNEL assay was carried out to evaluate cell apoptosis using a TUNEL Assay Kit (Roche, Ind., USA) according to the manufacturer's instructions. Specifically, ALDH^+ kuramochi cells were seeded with 1×10^5 cells in each well of 12-well culture plates. Cultured cells were allowed to attach for 24 hours, and then treated with 200 μg/ml of BP for 48 hours. Adherent tumor cells were fixed in 4% paraformaldehyde. TUNEL probes were used to detect breaks in DNA strands, followed by incubation in a permeabilization solution for 2 min on ice. Cells were washed twice in phosphate buffered saline (PBS) and the TUNEL reaction mixture was added, followed by incubation at 37° C. for 60 min in a humidified atmosphere in the dark. Samples were washed in PBS twice and observed under a fluorescence microscope.
as §1, with “Also, protein levels of cleaved caspase 3, caspase 9, and caspase 7 were examined using western blots as described above to examine apoptotic pathway activation in xenograft tumors.” left out

[6] = tested on: ALDH^+ kuramochi xenograft; assay: Subcutaneous xenograft tumor growth and histology in NOD-SCID mice; assay type: in vivo
Procedure: To investigate tumor growth in vivo, the subcutaneous xenograft model is used widely in the research and allows easy detection of tumor growth and size. Herein, human ovarian cancer xenografts were used to investigate the tumor-inhibiting effect of BP in mice. The animal experiment procedures were approved by the Animal Research and Care Committee of the Buddhist Tzu Chi General Hospital (106-48). All procedures were performed in compliance with the National Institutes Health Guide for the Care and Use of Laboratory Animals. Non-obese, diabetic-severe combined immune deficiency mice (NOD-SCID) (strain NOD.CB17-Prkdcscid/JTcu) purchased from Tzu Chi University were used for these experiments.
ALDH^+ kuramochi cells (1×10^6) were injected subcutaneously into the backs of 4 to 5-week-old female mice. After tumors had grown to a volume of 50 mm^3, mice were separated into two groups (control and treatment groups; n=6 in each group). Controls were treated with vehicle alone (10% dimethyl sulfoxide (DMSO), 20% ethanol in PBS), and the experimental group was treated with different doses of BP (100 or 200 mg/kg) for 5 days. Tumor dimensions (length and width) were measured with calipers, and the tumor volume was determined using the following formula: volume=½ (length×width^2). […] The morphology and cell density were observed and recorded.

ALDH^+ kuramochi cells [7] = assay: XTT viability, BP combined with cisplatin or paclitaxel; assay type: cell-based, human; details: 72 hours
Procedure: To determine whether BP affects the toxicity of these chemotherapeutic agents, BP was added to cisplatin and paclitaxel treatment of ovarian cancer cells in vitro. ALDH^+ kuramochi cells (2500 ALDH^+ cells/well) in a 96-well plate were treated with BP (25 μg/ml) in combination with cisplatin (0, 5, or 10 μM) or with paclitaxel (0, 10 or 50 nM). Each experiment was conducted in triplicate. Plates were incubated at 37° C. with 5% CO2 for 72 hours. Viable cells were counted by the XTT assay as describe above.

ALDH^+ kuramochi cells [8] = assay: TUNEL apoptosis assay in cultured cells; assay type: cell-based, human; details: BP 200 μg/ml for 48 hours vs no BP, p<0.01
Procedure: as §3

ALDH^+ kuramochi cells [9] = assay: XTT cell viability assay, ALDH+ kuramochi cells (cancer stem cells); assay type: cell-based; details: Homo sapiens, 48 h, BP 0-400 μg/ml
Procedure: To evaluate and characterize the kuramochi cells, the expression of the cancer stem cell (CSC) marker, ALDH, was assessed using flow cytometry. Specifically, fluorescence-activated cell sorting (FACS) was used to isolate ALDH^+ cells from the kuramochi cell line. Then, the Aldefluor assay kit (Stem Cell Technologies, Cambridge, Mass., USA) was used to determine the ALDH activity. The activated Aldefluor reagent was used to trypsinized and incubated with cells for 50 min at 37° C. Cells were incubated with the inhibitor, N,N-diethylaminobenzaldehyde (DEAB), as control cells to identify for ALDH^+ and ALDH^− cell populations. […]
as §2

CCCC=C1OC(=O)c2ccccc21 [BP, n-butylidenephthalide]
protein level of cleaved caspase 7 (ALDH^+ kuramochi cells [1]): increased | protein level of cleaved caspase 8 (ALDH^+ kuramochi cells [1]): increased | protein level of cleaved caspase 9 (ALDH^+ kuramochi cells [1]): increased | protein level of cleaved caspase 3 (ALDH^+ kuramochi cells [1]; p<0.001): increased | protein level of caspase 7 in xenograft [2]: increased | protein level of caspase 9 in xenograft [2]: increased | protein level of cleaved caspase 3 in xenograft [2]: increased | invasion of ALDH^+ cells (ALDH^+ kuramochi cells [3]; BP 100 μg/ml, p<0.01): significantly decreased | invasion of ALDH^+ cells (ALDH^+ kuramochi cells [3]; BP 200 μg/ml, p<0.001): significantly decreased | IC50 (ordinary kuramochi cells; 48 h of culture, BP 0-240 μg/ml, read-out: IC50 of BP for the ordinary kuramochi cells (figure legend)): 206 µg/mL (≈ 1100 µM) | IC50 (ordinary kuramochi cells; 48 h of treatment, XTT, 4PL fit, read-out: IC50 of BP for ordinary kuramochi cells): 206 µg/mL (≈ 1100 µM) | migration of ALDH^+ cells (ALDH^+ kuramochi cells [4]; BP 100 μg/ml, p<0.01): significantly decreased | migration of ALDH^+ cells (ALDH^+ kuramochi cells [4]; BP 200 μg/ml, p<0.001): significantly decreased | TUNEL^+ cells in xenograft tumors [5]: significantly more | tumor volumes vs vehicle control ([6]; BP 200 mg/kg for 5 days, day 11 to day 26, p<0.001): smaller | nuclei of xenograft tumors (H & E staining) vs control ([6]; BP-treated xenograft tumors): denser | cell viability with cisplatin plus BP vs cisplatin without BP (ALDH^+ kuramochi cells [7]; BP 25 μg/ml with cisplatin 0, 5 or 10 μM, 5 μM p<0.05, 0 and 10 μM p<0.01): significantly lowered | numbers of viable cells with paclitaxel plus BP vs paclitaxel without BP (ALDH^+ kuramochi cells [7]; BP 25 μg/ml with zero or low concentration of paclitaxel (0, 10 nM), p<0.01): significantly less | TUNEL^+ cells (ALDH^+ kuramochi cells [8]): Significantly more | IC50 (ALDH^+ kuramochi cells [9]): 317 µg/mL (≈ 1690 µM)
